Drawing on patent US11286268B1, “EIF4E-inhibiting compounds and methods” (EFFECTOR THERAPEUTICS, INC., priority 2019, dated 2022), this text covers IC50 for 46 compounds.

This assay has as its target recombinant eIF4E (Homo sapiens (Human), UniProt P06730). The experiment in a line: Fluorescence polarization competition assay for eIF4E binding potency. A digest of the protocol:
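FP readout; IC50 fit from 8-point, 3-fold series. 75 nM eIF4E + 20 nM ATTO-550-labelled m7GDP probe, Tris pH 7.5/NaCl/DTT/Tween buffer, 1% DMSO final. 30 min RT equilibration, light-protected.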

Setting [1] is: inhibition of eIF4E/EDA-m7GDP-ATTO-550 binding, calculated IC50 values, Table 4B, read-out: IC50.
The mark [2] stands for this setting: fluorescence polarization competition, 75 nM recombinant eIF4E, 20 nM EDA-m7GDP-ATTO-550, IC50 class, read-out: elF4E FP.
[3] abbreviates: inhibition of eIF4E/EDA-m7GDP-ATTO-550 binding by 50%, Table 4B calculated values, read-out: IC50.

Read-outs that look alike come from different tables or passages of the source.

recombinant eIF4E, sequence (P06730 whole entry): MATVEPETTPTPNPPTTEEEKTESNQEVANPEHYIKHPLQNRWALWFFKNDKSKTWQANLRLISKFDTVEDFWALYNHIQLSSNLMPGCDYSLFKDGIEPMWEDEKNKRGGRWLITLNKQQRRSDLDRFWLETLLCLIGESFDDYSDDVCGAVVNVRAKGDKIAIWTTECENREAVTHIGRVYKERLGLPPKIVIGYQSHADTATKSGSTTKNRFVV

For the compound `CCN(c1ncc2nc(C)n(CC#Cc3ccc(Cl)cc3-c3ccnc4c(C(=O)NS(=O)(=O)C5COC5)csc34)c(=O)c2c1C#N)C1CCN(C2COC2)CC1` [compound 1750], under setting [1], the IC50 was 16.1 nM.
`Cc1cc(-c2cc(Cl)ccc2OCCn2c(C)nc3cnc(N4CC(OC(C)(C)C)C4)c(C#N)c3c2=O)c2scc(C(=O)O)c2n1` [compound 1045]: the IC50 under setting [2] is less than 50 nM and the IC50 under setting [3] was 38.2 nM.
For `Cc1cc(-c2cc(Cl)ccc2OCCn2c(C)nc3c(C4CC4)ncc(C#N)c3c2=O)c2scc(C(=O)O)c2n1` [compound 339], in that order: less than 50 nM and 26.8 nM.
For `COc1ccc2nc(C)n(CCOc3ccc(Cl)cc3-c3ccnc4c(C(=O)O)csc34)c(=O)c2c1C#N` [compound 404] the same measures were less than 50 nM and 10.1 nM.
As for `COC(=O)c1csc2c(-c3cc(Cl)ccc3OCCn3c(C)nc4cc(C(F)(F)F)cc(C#N)c4c3=O)ccnc12` [compound 1900], under setting [1], the IC50 is 2700 nM.
For the compound `Cc1nc2cnc(N(C)[C@H]3CC[C@H](N(CC(F)F)C(C)CO)CC3)c(C#N)c2c(=O)n1CC#Cc1ccc(Cl)cc1-c1ccnc2c(C(=O)O)csc12` (stereo partly shown) [compound 1579], the IC50 under setting [1] is 30.3 nM.
With `Cc1nc2cc(Cl)c(Cl)c(Cl)c2c(=O)n1CCOc1ccc(Cl)cc1-c1ccnc2c(C(=O)O)csc12` [compound 208], the IC50 was 50 to 1000 nM under setting [2] and 103 nM under setting [3].
Regarding `CCN(c1ncc2nc(C)n(CC#Cc3ccc(Cl)cc3-c3ccnc4c(C(=O)O)csc34)c(=O)c2c1C#N)C1CCN([C@H]2C[C@@H](OC(F)(F)F)C2)CC1` [compound 1775], the IC50 under setting [1] is 32.1 nM.
In the case of `C#Cc1c(-c2cc(Cl)ccc2OCCn2c(C)nc3ccc(C(F)F)c(C#N)c3c2=O)ccnc1C(=O)O` [compound 57], the IC50 reads like this: under setting [2], less than 50 nM; under setting [3], 12.8 nM.
For `Cc1cc(-c2cc(Cl)ccc2OCCn2c(C)nc3cnc(N4CCN(C)CC4)c(C#N)c3c2=O)c2scc(C(=O)O)c2n1` [compound 1145] the same measures were less than 50 nM and 33.1 nM.
For `N#Cc1cc(C(F)(F)F)cc2nc(CF)n(CCOc3ccc(Cl)cc3-c3cccc(C(=O)O)c3)c(=O)c12` [compound 182], in that order: less than 50 nM and 43.8 nM.
For `Cc1nc2cnc(C#N)cc2c(=O)n1CC#Cc1ccc(Cl)cc1-c1ccnc2c(C(=O)O)csc12` [compound 625] the same measures were 50 to 1000 nM and 78 nM.
Regarding `Cc1nc2cnc(N(C)C3CCN(C4(COC(F)F)CC4)CC3)c(C#N)c2c(=O)n1CC#Cc1ccc(Cl)cc1-c1ccnc2c(C(=O)O)csc12` [compound 1504], under setting [1], the IC50 is 13.6 nM.
Turning to `Cc1cc(-c2cc(Cl)ccc2OCCn2c(C)nc3cc(C(F)(F)F)c(-c4ccncc4C)c(C#N)c3c2=O)c2scc(C(=O)O)c2n1` [compound 901], the IC50 is less than 50 nM under setting [2] and 45.6 nM under setting [3].
For `Cc1nc2cnc(N3CCN(C)C(CC#N)C3)c(C#N)c2c(=O)n1CCOc1ccc(Cl)cc1-c1ccnc2c(C(=O)O)csc12` (stereo not shown) [compound 1342], under setting [1], the IC50 is 30.4 nM.
With `Cc1nc2cc(C(F)F)c(OC(F)(F)F)c(C#N)c2c(=O)n1CCOc1ccc(Cl)cc1-c1ccnc2c(C(=O)O)csc12` [compound 551], the IC50 is less than 50 nM under setting [2] and 29.2 nM under setting [3].
Turning to `Cc1cc(-c2cc(Cl)ccc2OCCn2c(C)nc3cc(C(F)(F)F)c(-c4cnc(C)c(F)c4)c(C#N)c3c2=O)c2scc(C(=O)O)c2n1` [compound 1383], the IC50 under setting [1] was 5.03 nM.
As for `Cc1nc2cnc(N(C)C3CCN(CC4(F)COC4)CC3)c(C#N)c2c(=O)n1CC#Cc1ccc(Cl)cc1-c1ccnc2c(C(=O)O)csc12` [compound 1185], the IC50 reads like this: under setting [2], less than 50 nM; under setting [3], 17.6 nM.
Regarding `Cc1nc2cnc(/C=C/CN(C)CC(F)(F)F)c(C#N)c2c(=O)n1CCOc1ccc(Cl)cc1-c1ccnc2c(C(=O)O)csc12` [compound 1898], the IC50 under setting [1] was 61.3 nM.
As for `Cc1nc2cnc(N(C)C3CCN(CC(C)(F)F)CC3)c(C#N)c2c(=O)n1CC#Cc1ccc(Cl)cc1-c1ccnc2c(C(=O)NS(=O)(=O)c3cccnc3)csc12` [compound 1144], the IC50 under setting [2] was less than 50 nM and the IC50 under setting [3] was 34.4 nM.
In the case of `Cc1cc(-c2cc(Cl)ccc2OCCn2c(C)nc3cc(C(F)(F)F)c(-c4ccc(F)c(C)n4)c(C#N)c3c2=O)c2scc(C(=O)O)c2n1` [compound 1909], the IC50 under setting [1] was 29.2 nM.
Regarding `Cc1cc(-c2cc(Cl)ccc2OCCn2c(C)nc3cc(C(F)(F)F)c(-c4cnccc4C)c(C#N)c3c2=O)c2scc(C(=O)O)c2n1` [compound 736], the IC50 is less than 50 nM under setting [2] and 17 nM under setting [3].
`Cc1nc2cc(C(F)(F)F)c(N3CCN(C)CC3)c(C#N)c2c(=O)n1CCOc1ccc(Cl)cc1-c1cc(CF)nc2ccsc12` [compound 1253]: the IC50 under setting [1] was 8.4 nM.
Still for that read-out and setting: to `Cc1nc2cnc(N(C)C3CCN(C(c4ccn(C)n4)C(F)F)CC3)c(C#N)c2c(=O)n1CC#Cc1ccc(Cl)cc1-c1ccnc2c(C(=O)O)csc12` (stereo not shown) [compound 1537] belongs 18.9 nM.
For `Cc1nc2cc(C(F)(F)F)cc(C#N)c2c(=O)n1CCOc1cnc(C#N)nc1-c1ccnc2c(C(=O)O)csc12` [compound 455], the IC50 reads like this: under setting [2], 50 to 1000 nM; under setting [3], 473 nM.
For `CCc1nc(C)c2nc(C)n(CCOc3ccc(Cl)cc3-c3cc(C)nc4c(C(=O)O)csc34)c(=O)c2c1C#N` [compound 850] the same measures were less than 50 nM and 17.7 nM.
For `Cc1cc(-c2ncc3nc(C)n(CCOc4ccc(Cl)cc4-c4ccc(C)c5c(C(=O)O)csc45)c(=O)c3c2C#N)ccn1` [compound 763], in that order: less than 50 nM and 5.19 nM.
As for `CCN(c1ncc2nc(C)n(CC#Cc3ccc(Cl)cc3-c3ccnc4c(C(=O)NS(=O)(=O)c5cccnc5)csc34)c(=O)c2c1C#N)C1CCN(C2COC2)CC1` [compound 1741], the IC50 under setting [1] is 11 nM.
For the compound `Cc1cc(-c2cc(Cl)ccc2C#CCn2c(C)nc3cncc(C#N)c3c2=O)c2scc(C(=O)O)c2n1` [compound 601], the IC50 was 50 to 1000 nM under setting [2] and 52 nM under setting [3].
For `Cc1cc(-c2cc(Cl)ccc2OCCn2c(C)nc3cc(C(F)(F)F)c(-c4ccccn4)c(C#N)c3c2=O)c2scc(C(=O)O)c2n1` [compound 631], in that order: less than 50 nM and 3.41 nM.
For `Cc1nc2cnc(N(C)[C@H]3CC[C@H](N(C)CC(F)F)CC3)c(C#N)c2c(=O)n1CC#Cc1ccc(Cl)cc1-c1ccnc2c(C(=O)O)csc12` [compound 1895], the IC50 under setting [1] is 12.7 nM.
On to `Cc1nc2cnc(S(=O)(=O)N3CCN(C)CC3)c(C#N)c2c(=O)n1CCOc1ccc(Cl)cc1-c1ccnc2c(C(=O)O)csc12` [compound 821], for which the IC50 under setting [2] is less than 50 nM and the IC50 under setting [3] was 14.2 nM.
As for `N#Cc1cc(C(F)(F)F)cc2nc(C(F)F)n(CCOc3ccc(Cl)cc3-c3ccnc4c(C(=O)O)csc34)c(=O)c12` [compound 65], the IC50 is less than 50 nM under setting [2] and 24.1 nM under setting [3].
For `Cc1nc2cc(C(F)(F)F)c(OCCN3CCNCC3)c(C#N)c2c(=O)n1CCOc1ccc(Cl)cc1-c1ccnc2ccsc12` [compound 853], in that order: less than 50 nM and 31.9 nM.
For `Cc1cc(-c2nc3c(=O)n(CCOc4ccc(Cl)cc4-c4ccc(C(N)=O)c5c(C(=O)O)csc45)c(C)nc3cc2C(F)(F)F)ccn1` [788Fb], in that order: less than 50 nM and 4.35 nM.
For the compound `COc1ccc(S(=O)(=O)NC(=O)c2csc3c(-c4cc(Cl)ccc4C#CCn4c(C)nc5cnc(N(C)C6CCN(CC(C)(F)F)CC6)c(C#N)c5c4=O)ccnc23)cn1` [compound 1681], the IC50 under setting [1] was 8.27 nM.
Consider `Cc1cc(-c2cc(Cl)ccc2OCCn2c(C)nc3c(C)nc(C(F)(F)F)c(C#N)c3c2=O)c2scc(C(=O)O)c2n1` [compound 730], for which the IC50 under setting [2] lay within 50 to 1000 nM and the IC50 under setting [3] was 51 nM.
Regarding `Cc1cc(-c2cc(Cl)ccc2OCCn2c(C)nc3ccc(N4CCC(O)C4)c(C#N)c3c2=O)c2scc(C(=O)O)c2n1` (stereo not shown) [compound 1280], the IC50 under setting [1] is 4.26 nM.
For `CNc1ncc(-c2cc(Cl)ccc2OCCn2cnc3cnc(C#N)cc3c2=O)nc1C(=O)O` [compound 88], the IC50 runs as follows: under setting [2], greater than 1000 nM; under setting [3], 1680 nM.
For `Cc1cc(-c2cc(Cl)ccc2OCCn2c(C)nc3cc(F)c(-c4ccccc4)c(C#N)c3c2=O)c2scc(C(=O)O)c2n1` [compound 935], in that order: less than 50 nM and 19.6 nM.
For `Cc1nc2cc(S(C)(=O)=O)cc(C#N)c2c(=O)n1CCOc1ccc(Cl)cc1-c1ccnc2c(C(=O)O)csc12` [compound 194] the same measures were less than 50 nM and 35.8 nM.
For `Cc1cc(-c2cc(Cl)ccc2OCCn2c(C)nc3c(C)nc(-c4cnc(N)cc4F)c(C#N)c3c2=O)c2scc(C(=O)O)c2n1` [compound 874], in that order: less than 50 nM and 41.5 nM.
Turning to `C=Cc1ncc2nc(C)n(CCOc3ccc(Cl)cc3-c3cc(C)nc4c(C(=O)O)csc34)c(=O)c2c1C#N` [compound 809], the IC50 is less than 50 nM under setting [2] and 16 nM under setting [3].
For `Cc1cc(-c2cc(Cl)ccc2OCCn2c(C)cc3cnc(N(C)C)c(C#N)c3c2=O)c2scc(C(=O)O)c2n1` [compound 1002], in that order: less than 50 nM and 2.37 nM.
For `Cc1nc2c(N3CCN(CCCC(F)(F)F)CC3)ncc(C#N)c2c(=O)n1CCOc1ccc(Cl)cc1-c1ccnc2c(C(=O)O)csc12` [compound 843], in that order: less than 50 nM and 13.1 nM.
As for `CCN(c1ncc2nc(C)n(CC#Cc3ccc(Cl)cc3-c3ccnc4c(C(=O)NS(=O)(=O)C5CC(F)(F)C5)csc34)c(=O)c2c1C#N)C1CCN(C2COC2)CC1` [compound 1739], the IC50 under setting [1] is 33.3 nM.
